Measured values taken from patent publication US20140135310A1, “SULPHONAMIDE DERIVATIVES OF ALICYCLIC AMINES FOR THE TREATMENT OF CENTRAL NERVOUS SYSTEM DISEASES” (Adamed Sp. z o.o., priority 2011, published 2014).

Legend:
[1] = molecular target: dopaminergic receptors D2 (Homo sapiens, UniProt P14416); assay: Radioligand binding assay, dopaminergic D2 receptors; conditions: for inhibition at 1 µM / D2 [%]: binding assay, test compound 1×10^−6 M
In short: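 Values derive from competition curves: percent inhibition of control specific binding was fitted by Hill non-linear regression for IC50, and Ki calculated with Cheng–Prusoff from radioligand concentration and KD (Scatchard). Bound ligand was detected by scintillation counting.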

receptors D4.4 = molecular target: T1, receptors D4.4 (Homo sapiens, UniProt P21917); assay: Radioligand binding assay, dopaminergic D4 (D4.4) receptors; conditions: test compound 1×10^−6 M
T1 sequence (P21917 1-419): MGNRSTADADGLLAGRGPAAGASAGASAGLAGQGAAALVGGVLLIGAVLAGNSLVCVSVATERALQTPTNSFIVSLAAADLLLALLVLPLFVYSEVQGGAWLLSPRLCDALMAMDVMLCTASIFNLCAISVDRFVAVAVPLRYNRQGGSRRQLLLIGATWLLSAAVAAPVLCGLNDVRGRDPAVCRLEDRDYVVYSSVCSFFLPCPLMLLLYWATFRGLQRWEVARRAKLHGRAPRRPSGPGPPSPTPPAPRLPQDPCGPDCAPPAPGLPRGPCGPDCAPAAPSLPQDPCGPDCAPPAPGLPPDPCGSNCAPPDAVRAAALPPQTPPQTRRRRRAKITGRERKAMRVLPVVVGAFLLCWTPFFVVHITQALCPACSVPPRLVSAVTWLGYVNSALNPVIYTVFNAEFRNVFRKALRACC
Excerpt: (§1) The specific ligand binding to the receptors is defined as the difference between the total binding and the non-specific binding determined in the presence of the excess of unlabelled ligand.
(§2) The results are expressed as a percent of control specific binding ((measured specific binding/control specific binding)×100) and as a percent inhibition of control specific binding (100−((measured specific binding/control specific binding)×100)) obtained in the presence of the test compounds. The specific ligand binding to the receptors is defined as the difference between the total binding and the nonspecific binding determined in the presence of an excess of unlabelled ligand. Scintillation counting was the method of detection of ligand binding. The IC50 values (concentration causing a half-maximal inhibition of control specific binding) were determined by non-linear regression analysis of the competition curves generated with mean replicate values using Hill equation curve fitting (Y=D+[(A−D)/(1+(C/C50)nH)], where Y=specific binding, D=minimum specific binding, A=maximum specific binding, C=compound concentration, C50=IC50, and nH=slope factor). This analysis was performed using a software developed at Cerep (Hill software) and validated by comparison with data generated by the commercial software SigmaPlot® 4.0 for Windows® (© 1997 by SPSS Inc.). The inhibition constants (Ki) were calculated using the Cheng Prusoff equation (Ki=IC50/(1+(L/KD)), where L=concentration of radioligand in the assay, and KD=affinity of the radioligand for the receptor). A scatchard plot was used to determine the Kd.
Experimental conditions for tests are given in Table 1, the results of tests for representative compounds are given in Tables 2a and 2b (receptors D2 and D3) and in Table 3 (receptors D4).

5-HT2A receptor = molecular target: T2, 5-HT2A receptor (Homo sapiens, UniProt P28223); assay: Radioligand binding assay, serotoninergic 5-HT2A receptors
T2 construct: purchased PerkinElmer
T2 sequence (P28223 whole entry): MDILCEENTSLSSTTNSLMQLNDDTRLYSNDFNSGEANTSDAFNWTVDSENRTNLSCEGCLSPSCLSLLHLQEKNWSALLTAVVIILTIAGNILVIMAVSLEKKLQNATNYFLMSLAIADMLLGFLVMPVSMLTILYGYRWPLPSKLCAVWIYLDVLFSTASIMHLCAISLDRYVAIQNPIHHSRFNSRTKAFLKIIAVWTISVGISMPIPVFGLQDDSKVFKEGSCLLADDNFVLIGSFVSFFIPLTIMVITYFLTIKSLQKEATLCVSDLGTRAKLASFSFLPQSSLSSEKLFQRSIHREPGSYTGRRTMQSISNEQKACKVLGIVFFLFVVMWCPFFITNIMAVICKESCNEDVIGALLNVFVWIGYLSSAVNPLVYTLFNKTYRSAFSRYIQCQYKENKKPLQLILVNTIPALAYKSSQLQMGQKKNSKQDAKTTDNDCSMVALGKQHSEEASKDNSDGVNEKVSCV
In short: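 Competition curves from scintillation-counted specific binding (total minus binding with excess unlabelled ligand) were Hill-fitted to give IC50, converted to Ki via Cheng-Prusoff using Scatchard-derived Kd.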

5-HT7 receptor = molecular target: T3, 5-HT7 receptor (Homo sapiens, UniProt P34969); assay: Radioligand binding assay, serotoninergic 5-HT7 receptors; conditions: binding assay result in %, Table 5a
T3 construct: purchased PerkinElmer
T3 sequence (P34969 whole entry): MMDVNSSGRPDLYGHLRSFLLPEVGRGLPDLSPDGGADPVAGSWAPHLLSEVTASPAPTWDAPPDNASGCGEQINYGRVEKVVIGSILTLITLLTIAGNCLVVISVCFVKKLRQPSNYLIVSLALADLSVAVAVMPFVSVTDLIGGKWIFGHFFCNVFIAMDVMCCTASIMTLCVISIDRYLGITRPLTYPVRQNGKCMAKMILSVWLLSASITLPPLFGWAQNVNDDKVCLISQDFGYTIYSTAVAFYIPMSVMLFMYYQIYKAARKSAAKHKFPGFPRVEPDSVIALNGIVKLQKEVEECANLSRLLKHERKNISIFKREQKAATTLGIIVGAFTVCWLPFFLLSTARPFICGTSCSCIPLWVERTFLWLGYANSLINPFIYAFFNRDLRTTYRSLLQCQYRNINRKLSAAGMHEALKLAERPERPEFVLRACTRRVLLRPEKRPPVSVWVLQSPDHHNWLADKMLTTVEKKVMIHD
In short: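 Ki values used the Cheng–Prusoff equation, with KD from Scatchard analysis, applied to IC50 from Hill fits of human 5-HT7 radioligand competition curves. Bound radioligand was counted by scintillation, and excess unlabelled ligand set the non-specific binding.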

α2C adrenergic receptors = molecular target: T4, α2C adrenergic receptors (Homo sapiens, UniProt P18825); assay: Radioligand binding assay, adrenergic α2C receptors; conditions: test compound 1×10^−6 M
T4 construct: expressed in transfected cells; host or cells: CHO cells
T4 sequence (P18825 1-462): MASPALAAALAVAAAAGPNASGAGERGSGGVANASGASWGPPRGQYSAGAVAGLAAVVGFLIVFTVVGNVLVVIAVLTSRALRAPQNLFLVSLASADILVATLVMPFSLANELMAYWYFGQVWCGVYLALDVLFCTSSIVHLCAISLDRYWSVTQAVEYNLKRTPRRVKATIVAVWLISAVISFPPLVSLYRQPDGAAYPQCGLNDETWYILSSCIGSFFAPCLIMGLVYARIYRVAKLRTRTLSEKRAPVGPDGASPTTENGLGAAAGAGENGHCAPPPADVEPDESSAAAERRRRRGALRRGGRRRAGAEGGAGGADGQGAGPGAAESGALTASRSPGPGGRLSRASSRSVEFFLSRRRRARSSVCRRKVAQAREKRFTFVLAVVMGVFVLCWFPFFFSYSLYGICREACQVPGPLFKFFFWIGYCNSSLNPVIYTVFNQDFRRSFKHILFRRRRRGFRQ
Excerpt: as §1, §2
Experimental conditions for tests are given in Table 7, and results of tests for representative compounds are given in Tables 8 (α1 receptors) and in Tables 9 (α2C receptors).

[2] = molecular target: T5, serotonin transporter (SERT) (Homo sapiens, UniProt P31645); assay: Radioligand binding assay, serotonin transporter (SERT); conditions: binding assay, test compound 1×10^−6 M
T5 construct: expressed in transfected cells; host or cells: CHO cells
T5 sequence (P31645 whole entry): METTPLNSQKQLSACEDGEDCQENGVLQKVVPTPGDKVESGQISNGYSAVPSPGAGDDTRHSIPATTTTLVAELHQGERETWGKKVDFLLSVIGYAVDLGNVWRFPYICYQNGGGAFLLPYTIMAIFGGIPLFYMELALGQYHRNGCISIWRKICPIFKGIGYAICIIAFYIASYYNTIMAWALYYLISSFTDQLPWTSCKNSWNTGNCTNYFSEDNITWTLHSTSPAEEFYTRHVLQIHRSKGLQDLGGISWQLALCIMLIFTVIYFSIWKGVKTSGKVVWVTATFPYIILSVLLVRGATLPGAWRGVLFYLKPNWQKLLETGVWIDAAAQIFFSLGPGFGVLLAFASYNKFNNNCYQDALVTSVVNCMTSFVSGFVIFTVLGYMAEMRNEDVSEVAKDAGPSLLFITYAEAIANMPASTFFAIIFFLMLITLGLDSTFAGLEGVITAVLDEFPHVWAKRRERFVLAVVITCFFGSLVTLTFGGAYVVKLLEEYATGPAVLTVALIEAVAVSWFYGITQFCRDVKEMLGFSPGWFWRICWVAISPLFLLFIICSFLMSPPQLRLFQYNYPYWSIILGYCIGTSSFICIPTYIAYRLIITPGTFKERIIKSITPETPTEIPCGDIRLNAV
In short: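 Values are derived from competition curves fitted by the Hill equation to give IC50, then converted to Ki by Cheng-Prusoff with radioligand Kd from Scatchard analysis. Specific binding equals total minus non-specific (excess cold ligand), counted by scintillation, and is also expressed as percent inhibition of control.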

[3] = molecular target: T6, H1 histaminergic receptors (Homo sapiens, UniProt P35367); assay: Radioligand binding assay, histaminergic H1 receptors; conditions: human recombinant (HEK-293 cells), [3H]pyrilamine 1 nM
T6 construct: expressed in transfected cells; host or cells: HEK-293 cells
T6 sequence (P35367 whole entry): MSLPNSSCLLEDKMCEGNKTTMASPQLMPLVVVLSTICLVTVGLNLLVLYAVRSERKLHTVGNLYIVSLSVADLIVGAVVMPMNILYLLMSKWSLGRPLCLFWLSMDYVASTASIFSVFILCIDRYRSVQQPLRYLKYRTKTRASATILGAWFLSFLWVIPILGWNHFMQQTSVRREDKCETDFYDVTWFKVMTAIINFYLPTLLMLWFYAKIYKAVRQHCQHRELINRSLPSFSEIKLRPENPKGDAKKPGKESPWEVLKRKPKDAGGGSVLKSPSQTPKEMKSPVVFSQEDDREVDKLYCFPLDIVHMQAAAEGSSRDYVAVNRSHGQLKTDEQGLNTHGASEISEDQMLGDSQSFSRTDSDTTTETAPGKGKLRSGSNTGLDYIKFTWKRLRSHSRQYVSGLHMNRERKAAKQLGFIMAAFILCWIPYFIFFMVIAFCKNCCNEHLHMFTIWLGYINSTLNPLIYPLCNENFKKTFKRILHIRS
Excerpt: as §1, §2
Experimental conditions for tests are given in Table 14, and results of tests for representative compounds are presented in Table 15.

σ receptors = assay: Radioligand binding assay, σ receptors; conditions: rat cerebral cortex, [3H]DTG 8 nM
Excerpt: as §1
as §2, with “This analysis was performed using a software developed at Cerep (Hill software) and validated by comparison with data generated by the commercial software SigmaPlot® 4.0 for Windows® (© 1997 by SPSS Inc.).” left out

[4] = binding assay result in %, Table 5a

Chain of dopaminergic receptors D2 (P14416 whole entry): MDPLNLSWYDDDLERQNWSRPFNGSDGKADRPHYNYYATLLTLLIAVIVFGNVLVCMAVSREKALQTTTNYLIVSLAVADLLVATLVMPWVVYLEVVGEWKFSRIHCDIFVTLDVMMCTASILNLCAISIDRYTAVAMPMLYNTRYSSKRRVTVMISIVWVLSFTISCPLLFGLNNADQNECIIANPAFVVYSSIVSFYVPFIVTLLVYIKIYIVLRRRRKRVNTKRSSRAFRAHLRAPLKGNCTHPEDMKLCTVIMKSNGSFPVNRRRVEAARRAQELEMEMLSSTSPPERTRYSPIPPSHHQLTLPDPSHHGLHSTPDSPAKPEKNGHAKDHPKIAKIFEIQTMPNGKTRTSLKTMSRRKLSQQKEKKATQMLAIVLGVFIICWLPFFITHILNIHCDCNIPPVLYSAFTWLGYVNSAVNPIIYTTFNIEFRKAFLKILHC

Row | Molecule | inhibition at 1 µM [1] [%] | inhibition at 1 µM (receptors D4.4) [%] | inhibition at 1 µM (5-HT2A receptor; [4]) [%] | inhibition at 1 µM (5-HT7 receptor) [%] | inhibition at 1 µM (α2C adrenergic receptors) [%] | inhibition at 1 µM [2] [%] | inhibition at 1 µM [3] [%] | σ [%] (σ receptors) | D2 [%] [1] [%] | D4.4 [%] (receptors D4.4) | 5-HT7 [%] (5-HT7 receptor) | α2C [%] (α2C adrenergic receptors) | SERT [%] [2] [%] | H1 [%] [3] [%] | 5-HT2A [%] (5-HT2A receptor; [4]) | Ki ([1]; read-out: Inhibition constants Ki for D2 receptors, D2) [nM] | Ki (5-HT2A receptor; read-out: Inhibition constants Ki, 5-HT2A) [nM]
1 | O=S(=O)(NC1CCN(CCCc2noc3cc(F)ccc23)C1)c1ccc2cc(Cl)ccc2c1 (stereo not shown) [Compound 23, 6-Chloro-N-[1-[3-(6-fluoro-1,2-benzoxazol-3-yl)propyl]pyrrolidin-3-yl]naphthalene-2-sulphonamide] | 100 | 55 | 99 | 95 | 89 | 53 | 60 | 61 | – | – | – | – | – | – | – | – | –
2 | N-[1-[3-(6-Fluoro-1,2-benzoxazol-3-yl)propyl]pyrrolidin-3-yl]-1-methyl-imidazole-4-sulphonamide [Compound 217] | – | – | – | – | – | – | – | 86 | 96 | 72 | 97 | 96 | 90 | 46 | – | – | –
3 | Cc1ccc2sc(S(=O)(=O)NC3CCN(CCCc4noc5cc(F)ccc45)C3)cc2c1 (stereo not shown) [Compound 226, N-[1-[3-(6-Fluoro-1,2-benzoxazol-3-yl)propyl]pyrrolidin-3-yl]-5-methylbenzothiophene-2-sulphonamide] | 99 | 69 | – | 91 | 86 | 54 | 73 | 82 | – | – | – | – | – | – | – | – | –
4 | O=S(=O)(NC1CCN(CCCc2noc3cc(F)ccc23)C1)c1cc2ccccc2o1 (stereo not shown) [Compound 216, N-[1-[3-(6-Fluoro-1,2-benzoxazol-3-yl)propyl]pyrrolidin-3-yl]benzofuran-2-sulphonamide] | 98 | 87 | – | 99 | 80 | 53 | 61 | 88 | – | – | – | – | – | – | – | – | –
5 | O=S(=O)(NC1CN(CCOc2cccc3c2OCCO3)C1)c1cccc2ccccc12 [Compound 94, N-[1-[2-(2,3-Dihydro-1,4-benzodioxan-8-yloxy)ethyl]azetidin-3-yl]-naphthalene-1-sulphonamide] | – | – | – | – | – | – | – | 71 | 102 | 90 | 100 | 106 | 62 | – | 99 | – | –
6 | Cc1c(S(=O)(=O)NC2CCN(CCCc3noc4cc(F)ccc34)C2)sc2ccc(Cl)cc12 (stereo not shown) [Compound 29, 5-Chloro-N-[1-[3-(6-fluoro-1,2-benzoxazol-3-yl)propyl]pyrrolidin-3-yl]-3-methyl-benzothiophene-2-sulphonamide] | 97 | 16 | – | 52 | 84 | 44 | 59 | 60 | – | – | – | – | – | – | – | – | –
7 | Cc1c(S(=O)(=O)N[C@@H]2CCN(CCCc3noc4cc(F)ccc34)C2)sc2ccc(Cl)cc12 [Compound 204, 5-Chloro-N-[(3R)-1-[3-(6-fluoro-1,2-benzoxazol-3-yl)propyl]pyrrolidin-3-yl]-3-methyl-benzothiophene-2-sulphonamide] | 98 | 71 | – | 87 | 89 | 70 | – | 90 | – | – | – | – | – | – | – | 0.4 | 0.8
8 | O=S(=O)(NC1CN(CCOc2cccc3[nH]ccc23)C1)c1cccc2ccccc12 [Compound 49, N-[1-[2-(1H-Indol-4-yloxy)ethyl]azetidin-3-yl]naphthalene-1-sulphonamide] | 99 | 82 | 82 | 100 | 110 | 41 | – | 50 | – | – | – | – | – | – | – | – | –
9 | O=S(=O)(NC1CCN(CCCc2noc3cc(F)ccc23)C1)c1csc2ccccc12 (stereo not shown) [Compound 26, N-[1-[3-(6-Fluoro-1,2-benzoxazol-3-yl)propyl]pyrrolidin-3-yl]-benzothiophene-3-sulphonamide] | 98 | 101 | – | 97 | 76 | 66 | 44 | 80 | – | – | – | – | – | – | – | – | –
10 | O=S(=O)(NC1CCN(CCOc2nsc3ccccc23)C1)c1ccc2ccccc2c1 (stereo not shown) [Compound 39, N-[1-[2-(1,2-Benzothiazol-3-yloxy)ethyl]pyrrolidin-3-yl]naphthalene-2-sulphonamide] | 86 | 73 | 99 | 90 | 92 | 29 | – | 54 | – | – | – | – | – | – | – | – | –
11 | COc1ccc2cc(S(=O)(=O)NC3CCN(CCCc4noc5cc(F)ccc45)C3)ccc2c1 (stereo not shown) [Compound 227, N-[1-[3-(6-Fluoro-1,2-benzoxazol-3-yl)propyl]pyrrolidin-3-yl]-6-methoxy-naphthalene-2-sulphonamide] | 97 | 88 | – | 91 | 90 | 69 | 69 | 59 | – | – | – | – | – | – | – | – | –
